Experimental data as given in PubChem BioAssay AID1259411 (Chemical Carcinogenesis Research Information System (CCRIS), 2018).
Calls of active or inactive are those of the source. No rule for the calls is given here.

System: rodent carcinogenicity bioassays, tumor incidence
Experiment: CCRIS carcinogenicity studies
Conditions: Route: ORAL
In short: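 NCI-built, expert-reviewed records of carcinogenicity and related test outcomes (mutagenicity, tumor promotion/inhibition) compiled from published and report sources, historical span 1985-2011, not updated.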

Compound | carcinogen call (Species: RAT, Strain/Sex: F344/FEMALE, Dose: 0, 0.1, 0.2% IN DIET FOR DURATION OF STUDY (STUDY DURATION: 64 WK), Dose: 0, 0.1, 0.2% IN DIET FOR DURATION OF STUDY (STUDY DURATION: 64 WK)) | carcinogen call (Species: RAT, Strain/Sex: F344/FEMALE, Dose: 0, 1.25, 5.0% IN DIET FOR 104 WK (STUDY DURATION: 112 WK), Dose: 0, 1.25, 5.0% IN DIET FOR 104 WK (STUDY DURATION: 112 WK)) | carcinogen call (Species: RAT, Strain/Sex: F344/FEMALE, Dose: 0, 1,000, 10,000, 40,000 PPM IN DIET FOR 104 WK (STUDY DURATION: 104 WK), Dose: 0, 1,000, 10,000, 40,000 PPM IN DIET FOR 104 WK (STUDY DURATION: 104 WK)) | carcinogen call (Species: RAT, Strain/Sex: F344/MALE, Dose: 0, 0.1, 0.2% IN DIET FOR DURATION OF STUDY (STUDY DURATION: 64 WK), Dose: 0, 0.1, 0.2% IN DIET FOR DURATION OF STUDY (STUDY DURATION: 64 WK)) | carcinogen call (Species: RAT, Strain/Sex: F344/MALE, Dose: 0, 1.25, 5.0% IN DIET FOR 104 WK (STUDY DURATION: 112 WK), Dose: 0, 1.25, 5.0% IN DIET FOR 104 WK (STUDY DURATION: 112 WK)) | carcinogen call (Species: RAT, Strain/Sex: F344/MALE, Dose: 0, 1,000, 10,000, 40,000 PPM IN DIET FOR 104 WK (STUDY DURATION: 104 WK), Dose: 0, 1,000, 10,000, 40,000 PPM IN DIET FOR 104 WK (STUDY DURATION: 104 WK), Tumor Site: Type of Lesion: KIDNEY (RENAL TUBULE): ADENOMA) | carcinogen call (Species: MOUSE, Strain/Sex: B6C3F1/FEMALE, Dose: 0, 600, 3000, 6000 PPM IN DIET FOR 103 WK (STUDY DURATION: 106 WK), Dose: 0, 600, 3000, 6000 PPM IN DIET FOR 103 WK (STUDY DURATION: 106 WK)) | carcinogen call (Species: MOUSE, Strain/Sex: B6C3F1/MALE, Dose: 0, 600, 3000, 6000 PPM IN DIET FOR 103 WK (STUDY DURATION: 106 WK), Dose: 0, 600, 3000, 6000 PPM IN DIET FOR 103 WK (STUDY DURATION: 106 WK)) | carcinogen call (Species: MOUSE, Strain/Sex: B6C3F1/MALE, Dose: 0, 5000, 10000 PPM IN DIET BEGINNING AT 6 WK OF AGE AND CONTINUING FOR 70 WK (STUDY DURATION: 72 WK), Dose: 0, 5000, 10000 PPM IN DIET BEGINNING AT 6 WK OF AGE AND CONTINUING FOR 70 WK (STUDY DURATION: 72 WK)) | carcinogen call (Species: MOUSE, Strain/Sex: STRAIN-IF/FEMALE, Dose: 0, 0.5, 1% IN DIET FOR 18 MO (STUDY DURATION: 18 MO), Dose: 0, 0.5, 1% IN DIET FOR 18 MO (STUDY DURATION: 18 MO), Tumor Site: Type of Lesion: LIVER: HEPATOCELLULAR CARCINOMA OR ADENOMA) | carcinogen call (Species: MOUSE, Strain/Sex: STRAIN-IF/MALE,FEMALE, Dose: 0.5, 1.0% IN DIET FOR 18 MO, Tumor Site: Type of Lesion: LIVER: HEPATOCELLULAR ADENOMA, CARCINOMA) | carcinogen call (Species: MOUSE, Strain/Sex: STRAIN-IF/MALE, Dose: 0, 0.5, 1% IN DIET FOR 18 MO (STUDY DURATION: 18 MO), Dose: 0, 0.5, 1% IN DIET FOR 18 MO (STUDY DURATION: 18 MO), Tumor Site: Type of Lesion: LIVER: HEPATOCELLULAR CARCINOMA, HEPATOCELLULAR ADENOMA OR CARCINOMA) | carcinogen call (Species: RAT, Strain/Sex: F344/FEMALE, Dose: 0, 0.65, 1.3% IN DIET FOR 104 WK (STUDY DURATION: 130 WK), Dose: 0, 0.65, 1.3% IN DIET FOR 104 WK (STUDY DURATION: 130 WK)) | carcinogen call (Species: RAT, Strain/Sex: F344/FEMALE, Dose: 0, 600, 3000, 6000 PPM IN DIET FOR 103 WK (STUDY DURATION: 106 WK), Dose: 0, 600, 3000, 6000 PPM IN DIET FOR 103 WK (STUDY DURATION: 106 WK), Tumor Site: Type of Lesion: MULTIPLE ORGANS: MONONUCLEAR CELL LEUKEMIA) | carcinogen call (Species: RAT, Strain/Sex: F344/MALE, Dose: 0, 0.45, 0.9% IN DIET FOR 104 WK (STUDY DURATION: 130 WK), Dose: 0, 0.45, 0.9% IN DIET FOR 104 WK (STUDY DURATION: 130 WK)) | carcinogen call (Species: RAT, Strain/Sex: F344/MALE, Dose: 0, 600, 3000, 6000 PPM IN DIET FOR 103 WK (STUDY DURATION: 106 WK), Dose: 0, 600, 3000, 6000 PPM IN DIET FOR 103 WK (STUDY DURATION: 106 WK))
O=c1c(O)c(-c2ccc(O)c(O)c2)oc2cc(O)cc(O)c12 | inactive; negative | inactive; negative | inactive; negative | inactive; negative | inactive; negative | active; positive |  |  |  |  |  |  |  |  |  | 
CC(=O)Nc1ccc(O)cc1 |  |  |  |  |  |  | inactive; negative | inactive; negative | inactive; negative | active; positive | active; positive | active; positive | inactive; negative | equivocal | inactive; negative | inactive; negative
